Experiments:
Assay type in all cases: cell-based
[1] = test system: Citrobacter diversus; assay: Growth of wild Enterobacteriaceae strain in Mueller-Hinton broth (optical density); details: 0.17 mmol/l
Description: (§1) The E. coli was grown for 24 hours at 35° C. on Columbia agar supplemented with sheep blood. The bacteria were then resuspended in sterile, distilled water and their density was adjusted to 0.5 on the MacFarland scale (i.e. about 10^8 cells/ml). This suspension was then diluted 100-fold in sterile Mueller-Hinton broth (i.e. to a final density of about 10^6 cells/ml).
(§2) Fifty microliters of each nitrocoumarin solution plus 50 μl of bacterial suspension were then added to the wells of a microtiter plate. The plates were incubated at 35° C. and the optical density and fluorescence of each well was read every 30 min for a total of 4 hours. Optical density (690 nm) readings were made using an Anthos 2001 spectrophotometer (Labtech International Limited), and fluorescence (excitation at 365 nm and emission at 440 nm) readings were made on a Biolite F1 2001 fluorometer (Labtech International Limited).
(§3) This experiment was designed to investigate whether or not it would be possible to detect Enterobacteriaceae other than E. coli using 7-nitrocoumarin-3-carboxylic acid. The conditions for this experiment were similar to those described for the first experiment (section A).
(§4) Five wild strains belonging to the species Citrobacter diversus, Enterobacter agglomerans, Hafnia alvei, Morganella morganii and Shigella sonnei were tested

[2] = test system: Enterobacter agglomerans; assay: as above; details: 0.17 mmol/l
Description: as §1, §2, §3, §4

[3] = test system: Hafnia alvei; assay: as above; details: 0.17 mmol/l
Description: as §1, §2, §3, §4

[4] = test system: Morganella morganii; assay: as above; details: 0.17 mmol/l
Description: as §1, §2, §3, §4

[5] = test system: Shigella sonnei; assay: as above; details: 0.17 mmol/l
Description: as §1, §2, §3, §4

[6] = test system: Brevundimonas vesicularis (ATCC 11426); assay: Fluorescence after 24 hours, serial dilutions in Trypticase Soy broth
Description: (§5) This experiment was performed to test 7-nitrocoumarin-3-carboxylic acid on sixteen (16) different types of microorganism, including one yeast species.
(§6) A mass of 10 mg of the indicator was dissolved in 4 ml of hot, distilled water and this solution was then added to 96 ml of Trypticase Soy broth. The resultant mixture was sterile-filtered.
(§7) All the microorganisms were grown for 24 hours in Trypticase Soy broth at 35° C. Each culture was then diluted 1,000-fold in Trypticase Soy broth and then serial 10-fold dilutions were made in more Trypticase Soy broth until the test aliquot contained no more microbial cells.
(§8) The resultant dilutions ranged from 10^−3 to 10^−13.
(§9) Fifty microliters of each dilution plus 50 μl of Trypticase Soy broth were added to wells of a microtiter plate with or without 7-nitrocoumarin-3-carboxylic acid.
(§10) The plates were read (T zero) and then incubated at 35° C. before being read again after 24 hours. Two different readings were made at each time point:
(§11) of the fluorescence (excitation at 365 nm and emission at 440 nm), using a Biolite F1 2001 fluorometer (Labtech International Limited), for wells containing 7-nitrocoumarin-3-carboxylic acid.

[7] = test system: Burkholderia cepacia (ATCC 25416); assay: as above
Description: as §5, §6, §7, §8, §9, §10, §11

[8] = test system: Shigella sonnei (NCTC 8586); assay: as above
Description: as §5, §6, §7, §8, §9, §10, §11

[9] = test system: Candida albicans (ATCC 90028); assay: as above; details: for Fluorescence reading: 24 hours
Description: as §5, §6
[…] Each culture was then diluted 1,000-fold in Trypticase Soy broth and then serial 10-fold dilutions were made in more Trypticase Soy broth until the test aliquot contained no more microbial cells.
as §8, §9, §10, §11

[10] = test system: Enterobacteriaceae, non-fermenting Gram-positive bacilli, Staphylococcus spp., Streptococcus spp., Listeria spp. and yeasts; assay: Reduction of nitrocoumarin derivatives by most microorganisms (results not presented)

In the case of `O=C(O)c1cc2ccc([N+](=O)[O-])cc2oc1=O` [7-nitrocoumarin-3-carboxylic acid], the “Optical density (690 nm)” value ([1]; 0 min) is reported as 0.000, the “Optical density (690 nm)” value ([1]; 30 min) is reported as 0.000 and the “Optical density (690 nm)” value ([1]; 60 min) is reported as 0.005. The “Optical density (690 nm)” value ([1]; 90 min) was 0.011, the “Optical density (690 nm)” value ([1]; 120 min) was 0.020 and the “Optical density (690 nm)” value ([1]; 150 min) was 0.050. For the same compound, the “Optical density (690 nm)” value ([1]; 180 min) was 0.092, the “Optical density (690 nm)” value ([1]; 210 min) was 0.143 and the “Optical density (690 nm)” value ([1]; 240 min) was 0.250. The “Optical density (690 nm)” value ([2]; 0 min) was 0.000, the “Optical density (690 nm)” value ([2]; 30 min) was −0.002 and the “Optical density (690 nm)” value ([2]; 60 min) was 0.002. For the same compound, the “Optical density (690 nm)” value ([2]; 90 min) was 0.006, the “Optical density (690 nm)” value ([2]; 120 min) was 0.027 and the “Optical density (690 nm)” value ([2]; 150 min) was 0.057. The “Optical density (690 nm)” value ([2]; 180 min) was 0.155, the “Optical density (690 nm)” value ([2]; 210 min) was 0.225 and the “Optical density (690 nm)” value ([2]; 240 min) was 0.323. For the same compound, the “Optical density (690 nm)” value ([3]; 0 min) was 0.000, the “Optical density (690 nm)” value ([3]; 30 min) was −0.001 and the “Optical density (690 nm)” value ([3]; 60 min) was 0.004. The “Optical density (690 nm)” value ([3]; 90 min) was 0.009, the “Optical density (690 nm)” value ([3]; 120 min) was 0.016 and the “Optical density (690 nm)” value ([3]; 150 min) was 0.034. For the same compound, the “Optical density (690 nm)” value ([3]; 180 min) was 0.092, the “Optical density (690 nm)” value ([3]; 210 min) was 0.149 and the “Optical density (690 nm)” value ([3]; 240 min) was 0.246. For the same compound, the “Optical density (690 nm)” value ([4]; 0 min) was 0.000, the “Optical density (690 nm)” value ([4]; 30 min) was −0.010 and the “Optical density (690 nm)” value ([4]; 60 min) was −0.010. For the same compound, the “Optical density (690 nm)” value ([4]; 90 min) was −0.005, the “Optical density (690 nm)” value ([4]; 120 min) was 0.003 and the “Optical density (690 nm)” value ([4]; 150 min) was 0.020. For the same compound, the “Optical density (690 nm)” value ([4]; 180 min) was 0.064, the “Optical density (690 nm)” value ([4]; 210 min) was 0.116 and the “Optical density (690 nm)” value ([4]; 240 min) was 0.187. For the same compound, the “Optical density (690 nm)” value ([5]; 0 min) was 0.000, the “Optical density (690 nm)” value ([5]; 30 min) was −0.001 and the “Optical density (690 nm)” value ([5]; 60 min) was 0.000. The “Optical density (690 nm)” value ([5]; 90 min) was 0.002, the “Optical density (690 nm)” value ([5]; 120 min) was 0.013 and the “Optical density (690 nm)” value ([5]; 150 min) was 0.042. The “Optical density (690 nm)” value ([5]; 180 min) was 0.097, the “Optical density (690 nm)” value ([5]; 210 min) was 0.159 and the “Optical density (690 nm)” value ([5]; 240 min) was 0.246. For the same compound, the Fluorescence reading ([6]; dilution 10^−3) was 2543, the Fluorescence reading ([6]; dilution 10^−4) was 1962 and the Fluorescence reading ([6]; dilution 10^−5) was 1861. It also gave a Fluorescence reading ([6]; dilution 10^−6) of 1941, a Fluorescence reading ([6]; dilution 10^−7) of 1928 and a Fluorescence reading ([6]; dilution 10^−8) of 1889. For the same compound, the Fluorescence reading ([6]; dilution 10^−9) was 1929, the Fluorescence reading ([6]; dilution 10^−10) was 1910 and the Fluorescence reading ([6]; dilution 10^−11) was 1938. It also gave a Fluorescence reading ([6]; dilution 10^−12) of 1919, a Fluorescence reading ([6]; dilution 10^−13) of 1877 and a Fluorescence reading ([7]; dilution 10^−3) of 16978. The Fluorescence reading ([7]; dilution 10^−4) was 16719, the Fluorescence reading ([7]; dilution 10^−5) was 16808 and the Fluorescence reading ([7]; dilution 10^−6) was 15800. The Fluorescence reading ([7]; dilution 10^−7) was 11973, the Fluorescence reading ([7]; dilution 10^−8) was 1969 and the Fluorescence reading ([7]; dilution 10^−9) was 1996. It also gave a Fluorescence reading ([7]; dilution 10^−10) of 1950, a Fluorescence reading ([7]; dilution 10^−11) of 1925 and a Fluorescence reading ([7]; dilution 10^−12) of 1965. The Fluorescence reading ([7]; dilution 10^−13) was 1914, the Fluorescence reading ([8]; dilution 10^−3) was 51755 and the Fluorescence reading ([8]; dilution 10^−4) was 50254. The Fluorescence reading ([8]; dilution 10^−5) was 50166, the Fluorescence reading ([8]; dilution 10^−6) was 50278 and the Fluorescence reading ([8]; dilution 10^−7) was 49882. The Fluorescence reading ([8]; dilution 10^−8) was 47370, the Fluorescence reading ([8]; dilution 10^−9) was 1816 and the Fluorescence reading ([8]; dilution 10^−10) was 1990. For the same compound, the Fluorescence reading ([8]; dilution 10^−11) was 1960, the Fluorescence reading ([8]; dilution 10^−12) was 1956 and the Fluorescence reading ([8]; dilution 10^−13) was 1911. For the same compound, the Fluorescence reading ([9]; dilution 10^−3) was 2847, the Fluorescence reading ([9]; dilution 10^−4) was 2609 and the Fluorescence reading ([9]; dilution 10^−5) was 2335. For the same compound, the Fluorescence reading ([9]; dilution 10^−6) was 2041, the Fluorescence reading ([9]; dilution 10^−7) was 1693 and the Fluorescence reading ([9]; dilution 10^−8) was 1745. For the same compound, the Fluorescence reading ([9]; dilution 10^−9) was 1693, the Fluorescence reading ([9]; dilution 10^−10) was 1751 and the Fluorescence reading ([9]; dilution 10^−11) was 1666. For the same compound, the Fluorescence reading ([9]; dilution 10^−12) was 1702, the Fluorescence reading ([9]; dilution 10^−13) was 1666 and the “Fluorescent signal compared with bacteria (in words)” value ([9]; RPMI medium, results not presented) was “comparable to that generated by the bacteria”. The “Fluorescent signal compared with bacteria (in words)” value ([9]; Trypticase Soy broth) was “only a faint fluorescent signal” and the “Reduction to give a fluorescent signal (in words)” value [10] was “All were capable of reducing”.
